Source: US20100249234A1, “METHODS OF REDUCING VIRULENCE IN BACTERIA” (UWM RESEARCH FOUNDATION, INC., priority 2007, published 2010)

Assays:
Format in all cases: cell-based, Dickeya dadantii 3937 (Ech3937)
hrpN promoter = hrpN promoter activity, GFP reporter plasmid phrpN, flow cytometry (FACS); conditions: for GFP intensity (Mean Fluorescence Intensity) of WPP96 (phrpN): hrpL mutant WPP96; for GFP intensity (Mean Fluorescence Intensity) of Ech138 (phrpN): iaaM mutant Ech138, MM + 0.1 mM OCA; for GFP intensity (Mean Fluorescence Intensity) of WPP90 (phrpN): hrpS mutant WPP90; for GFP intensity (Mean Fluorescence Intensity) of WPP67 (phrpN): hrpX mutant WPP67; for GFP intensity (Mean Fluorescence Intensity) of WPP92 (phrpN): hrpY mutant WPP92
hrpS promoter = hrpS promoter activity, GFP reporter plasmid phrpS, flow cytometry (FACS)
Method: (§1) FACS analysis of promoter activity of dspE, hrpA, hrpL, hrpN, and hrpS was carried out as described (Peng et al., 2006). Briefly, the wild-type Ech3937 and the mutant strains carrying the promoter reporter plasmid were grown on LB broth at 28° C. overnight and transferred to appropriate media. For FACS analysis, samples were collected by centrifugation, washed with 1× phosphate buffer saline (PBS) at 13,000 rpm for 1 min, and re-suspended in 1×PBS to ca 10^6 CFU/ml prior to being run in a FACS Calibur flow cytometer (BD Biosciences, CA). Three replicates were performed for each treatment.
(§2) Since OCA and TCA induced the expression of hrpN, the effect of these two phenolic compounds on the expression of hrpA, hrpL, and hrpS was investigated further. […] GFP intensity was determined on gated populations of bacterial cells by flow cytometry and analyzed with the Cell Quest software (BD Biosciences, San Jose, Calif.). The lines labeled “1” stand for the GFP expression control base level of the Ech3937 containing pPROBE-AT vector; lines labeled “2” stand for the promoter activity of hrpS, hrpL, hrpA and hrpN in Ech3937 in MM; lines labeled “3” stand for the promoter activity of Ech3937 in MM supplemented with 0.1 mM OCA; lines labeled “4” stand for the promoter activity of hrpL mutant WPP96 in MM; lines labeled “5” stand for the promoter activity of hrpL mutant WPP96 in MM supplemented with 0.1 mM OCA. Values are representative of at least two experiments. […] Compared with MM alone, the average GFP fluorescence intensity of bacterial cells of Ech3937 (phrpA) was doubled when 0.1 mM of OCA and TCA were added to the medium (Table 4; FIG. 3). […] The mrp, whose protein product has an ATPase conserved domain (2e-06), was used as a reference gene in this study.

pPROBE-AT vector = test: GFP expression control base level, pPROBE-AT vector, flow cytometry (FACS)
Method: as §1, §2

hrpL mRNA = test: qRT-PCR relative mRNA level of hrpL
Method: (§3) Bacterial strains were grown in MM. Total RNA from the bacterial cells was isolated by using the TRI reagent method (Sigma, Mo.) and treated with Turbo DNA-free DNase kits (Ambion, TX) as described (Peng et al., 2006). An iScript cDNA Synthesis Kit (Bio-Rad, CA) was used to synthesize cDNA from 0.5 μg of treated total RNA. The Real Master Mix (Eppendorf, Westbury, N.Y.) was used for qRT-PCR reaction to quantify the cDNA level of target genes in different samples. The rplU was used as the endogenous control for data analysis. qRT-PCR data were analyzed using Relative Expression Software Tool as described (Pfaffl, M. W., Horgan, G. W., and Dempfle, L. (2002) Relative expression software tool (REST) for group-wise comparison and statistical analysis of relative expression results in real-time PCR. Nucleic Acids Res 30:e36.).

dspE mRNA = test: qRT-PCR relative mRNA level of dspE
Method: as §3

hrpY mRNA = test: qRT-PCR relative mRNA level of hrpY; conditions: MM supplemented with OCA, p>0.5 (FIG. 4)
Method: as §3

hrpS mRNA = test: qRT-PCR relative mRNA level of hrpS
Method: as §3

gacA mRNA = test: qRT-PCR relative mRNA level of gacA; conditions: MM supplemented with OCA, p>0.5 (FIG. 4)
Method: as §3

rsmB mRNA = test: qRT-PCR relative mRNA level of rsmB
Method: as §3

hrpN mRNA = test: qRT-PCR relative mRNA level of hrpN; conditions: 0.1 mM PCA, P=0.001 (FIG. 14)
Method: as §3

HrpN = HrpN protein expression; conditions: MM supplemented with 0.1 mM of PCA (FIG. 15)
Text: To further elucidate whether T3SS gene expression is mainly regulated through the HrpX/Y-HrpS-HrpL regulatory pathway, the expression of hrpA and hrpN in wild-type Ech3937 and hrpX (WPP67), hrpY (WPP92), hrpS (WPP90), and hrpL (WPP96) mutants in MM were examined. […] Similar expression of hrpA and hrpN was observed among WPP67, WPP92, WPP90 and WPP96 carrying phrpA and phrpN grown in MM and MM supplemented with PCA. […] Since PCA represses the expression of several T3SS genes such as hrpN, the effect of PCA on protein production of HrpN was further examined.

[1] = MM + 0.1 mM compound, 12 h (Table 4)
[2] = MM + 0.1 mM PCA (MMPCA), 12 h (Table 10)
[3] = MM + 0.1 mM PCA (MMPCA), 24 h (Table 10)
[4] = MM supplemented with PCA vs MM alone (normalized to 1), P=0.001

O=C(O)/C=C/c1ccccc1O [OCA, o-coumaric acid]
increase of average GFP fluorescence intensity of Ech3937 (phrpN) compared with MM alone (hrpN promoter; 0.05 mM compound added to MM, 12 h and 24 h (FIGS. 2A, 2B)): approximately 4 fold
induction of hrpN expression in Ech3937 and in hrpX (WPP67), hrpY (WPP92), hrpS (WPP90) mutants (hrpN promoter; 0.1 mM compound in MM, 12 h (FIG. 5)): induced the expression of hrpN in Ech3937, but not in hrpX, hrpY, and hrpS mutants
GFP intensity (Mean Fluorescence Intensity) of Ech3937 (phrpN) (hrpN promoter; MM + 0.1 mM OCA (MMOCA), 6 h (Table 5)): 31 ± 3
GFP intensity (Mean Fluorescence Intensity) of Ech3937 (phrpN) (hrpN promoter; MM + 0.1 mM OCA (MMOCA), 12 h (Table 5)): 91 ± 8
GFP intensity (Mean Fluorescence Intensity) of Ech3937 (phrpN) (hrpN promoter; MM + 0.1 mM OCA (MMOCA), 24 h (Table 5)): 78 ± 8
GFP intensity (Mean Fluorescence Intensity) of Ech3937 (phrpN) (hrpN promoter; [1]): 94 ± 3
GFP intensity (Mean Fluorescence Intensity) of WPP96 (phrpN) (hrpN promoter; [1]): 3.3 ± 0.1
GFP intensity (Mean Fluorescence Intensity) of Ech138 (phrpN) (hrpN promoter; 6 h): 9.1 ± 1.6
GFP intensity (Mean Fluorescence Intensity) of Ech138 (phrpN) (hrpN promoter; 12 h): 33 ± 5
GFP intensity (Mean Fluorescence Intensity) of Ech138 (phrpN) (hrpN promoter; 24 h): 39 ± 5
GFP intensity of Ech3937 (phrpS) compared with MM alone (hrpS promoter; MM + 0.1 mM compound, 12 h): slightly lower GFP intensity
GFP intensity (Mean Fluorescence Intensity) of Ech3937 (phrpS) (hrpS promoter; [1]): 56 ± 1
GFP intensity (Mean Fluorescence Intensity) of WPP96 (phrpS) (hrpS promoter; hrpL mutant WPP96, MM + 0.1 mM compound, 12 h (Table 4)): 350 ± 17
GFP intensity (Mean Fluorescence Intensity) of Ech3937 (pPROBE-AT) (pPROBE-AT vector; MM + 0.1 mM OCA, 6 h): 2.0 ± 0
GFP intensity (Mean Fluorescence Intensity) of Ech3937 (pPROBE-AT) (pPROBE-AT vector; MM + 0.1 mM OCA, 12 h): 2.0 ± 0
GFP intensity (Mean Fluorescence Intensity) of Ech3937 (pPROBE-AT) (pPROBE-AT vector; MM + 0.1 mM OCA, 24 h): 1.9 ± 0
GFP intensity (Mean Fluorescence Intensity) of Ech3937 (pPROBE-AT) (pPROBE-AT vector; [1]): 2.0 ± 0
hrpL mRNA compared with MM alone (qRT-PCR) (hrpL mRNA; 0.1 mM OCA, 12 h of growth, P<0.01): about 3 fold
dspE mRNA compared with MM alone (qRT-PCR) (dspE mRNA; MM supplemented with 0.1 mM OCA (FIG. 4)): significantly higher amount
hrpY gene expression, MM vs supplemented MM (qRT-PCR) (hrpY mRNA): No significant difference
hrpS gene expression, MM vs supplemented MM (qRT-PCR) (hrpS mRNA; MM supplemented with OCA, p>0.5 (FIG. 4)): No significant difference
gacA gene expression, MM vs supplemented MM (qRT-PCR) (gacA mRNA): No significant difference
rsmB mRNA relative expression ratio (rsmB mRNA; Ech3937 in supplemented MM vs MM alone (normalized to 1)): 1.4

O=C(O)/C=C/c1ccc(O)cc1 [PCA, p-coumaric acid]
GFP intensity (Mean Fluorescence Intensity) of Ech3937 (phrpN) (hrpN promoter; [2]): 6.8 ± 0.8
GFP intensity (Mean Fluorescence Intensity) of Ech3937 (phrpN) (hrpN promoter; MM + 0.1 mM PCA (MMPCA), 12 h (Table 11)): 4.3 ± 0.1
GFP intensity (Mean Fluorescence Intensity) of Ech3937 (phrpN) (hrpN promoter; [3]): 11.3 ± 3.4
GFP intensity (Mean Fluorescence Intensity) of Ech3937 (phrpN) (hrpN promoter; MM + 0.1 mM PCA (MMPCA), 24 h (Table 11)): 8.8 ± 2.1
promoter activity (expression) of hrpN compared with MM alone (hrpN promoter; MM supplemented with 0.1 mM PCA): reduced expression
GFP intensity (Mean Fluorescence Intensity) of WPP96 (phrpN) (hrpN promoter; MM + 0.1 mM PCA, 12 h): 3.0 ± 0.0
GFP intensity (Mean Fluorescence Intensity) of WPP96 (phrpN) (hrpN promoter; MM + 0.1 mM PCA, 24 h): 4.3 ± 0.1
GFP intensity (Mean Fluorescence Intensity) of WPP90 (phrpN) (hrpN promoter; MM + 0.1 mM PCA, 12 h): 3.5 ± 0.1
GFP intensity (Mean Fluorescence Intensity) of WPP90 (phrpN) (hrpN promoter; MM + 0.1 mM PCA, 24 h): 5.1 ± 0.1
GFP intensity (Mean Fluorescence Intensity) of WPP67 (phrpN) (hrpN promoter; MM + 0.1 mM PCA, 12 h): 3.5 ± 0.2
GFP intensity (Mean Fluorescence Intensity) of WPP67 (phrpN) (hrpN promoter; MM + 0.1 mM PCA, 24 h): 6.3 ± 0.7
GFP intensity (Mean Fluorescence Intensity) of WPP92 (phrpN) (hrpN promoter; MM + 0.1 mM PCA, 12 h): 3.6 ± 0.1
GFP intensity (Mean Fluorescence Intensity) of WPP92 (phrpN) (hrpN promoter; MM + 0.1 mM PCA, 24 h): 5.5 ± 0.3
GFP intensity (Mean Fluorescence Intensity) of Ech3937 (phrpS) (hrpS promoter; [2]): 37.9 ± 1.3
GFP intensity (Mean Fluorescence Intensity) of Ech3937 (phrpS) (hrpS promoter; [3]): 43.6 ± 2.6
GFP intensity (Mean Fluorescence Intensity) of Ech3937 (pPROBE-AT) (pPROBE-AT vector; MM + 0.1 mM PCA, 12 h (Table 10)): 2.2 ± 0.2
GFP intensity (Mean Fluorescence Intensity) of Ech3937 (pPROBE-AT) (pPROBE-AT vector; MM + 0.1 mM PCA, 12 h (Table 11)): 2.3 ± 0.1
GFP intensity (Mean Fluorescence Intensity) of Ech3937 (pPROBE-AT) (pPROBE-AT vector; MM + 0.1 mM PCA, 24 h (Table 10)): 14.0 ± 10.1
GFP intensity (Mean Fluorescence Intensity) of Ech3937 (pPROBE-AT) (pPROBE-AT vector; MM + 0.1 mM PCA, 24 h (Table 11)): 4.9 ± 0.1
hrpL mRNA relative expression ratio (hrpL mRNA; [4]): 0.039
dspE mRNA compared with MM alone (normalized to 1), qRT-PCR (dspE mRNA; 0.1 mM PCA, P=0.001 (FIG. 14)): significantly lower amount of mRNA
hrpS mRNA relative expression ratio (hrpS mRNA; [4]): 0.223
rsmB gene expression, MM vs supplemented MM (qRT-PCR) (rsmB mRNA; MM supplemented with PCA, p=0.928 (FIG. 14)): No significant difference
hrpN mRNA compared with MM alone (normalized to 1), qRT-PCR (hrpN mRNA): significantly lower amount of mRNA
amount of HrpN protein compared with MM alone (HrpN): lower amount of HrpN
